SMILES strings stand for the structures. Some results are limits rather than exact numbers.

The target of this assay is IRAK4 (Homo sapiens (Human), UniProt Q9NWZ3). In words: IRAK-4 AlphaScreen biochemical kinase assay. The following applies: 1 nM IRAK4, 1 mM ATP, 3.5 h at RT. As for the experimental part: The biochemical assay is in a AlphaScreen format. The kinase reaction is based on the IRAK-4 phosphorylation of a biotin labeled peptide. The phosphopeptide is incubated with anti-phosphothreonine antibody as well as streptavidin- and protein A-coated beads. Binding of the protein-A coated beads to the antibody and the streptavidin beads to the peptide, leads to an energy transfer from one bead to the other, ultimately producing a luminescent/fluorescent signal.
Sequence of IRAK4 (Q9NWZ3 whole entry, species assumed): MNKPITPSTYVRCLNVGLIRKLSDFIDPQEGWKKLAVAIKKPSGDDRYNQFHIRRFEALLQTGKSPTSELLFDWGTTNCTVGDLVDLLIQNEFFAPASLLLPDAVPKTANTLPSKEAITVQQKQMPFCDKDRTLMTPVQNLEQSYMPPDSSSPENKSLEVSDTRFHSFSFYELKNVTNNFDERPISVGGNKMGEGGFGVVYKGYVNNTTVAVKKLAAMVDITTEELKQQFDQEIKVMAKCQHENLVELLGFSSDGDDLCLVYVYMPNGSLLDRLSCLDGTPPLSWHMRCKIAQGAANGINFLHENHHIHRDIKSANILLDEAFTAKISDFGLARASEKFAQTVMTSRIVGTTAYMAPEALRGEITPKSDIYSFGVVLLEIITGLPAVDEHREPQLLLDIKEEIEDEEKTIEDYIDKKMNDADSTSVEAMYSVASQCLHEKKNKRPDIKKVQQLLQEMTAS
For the compound `CNc1cncc(-c2ccc3cnn(-c4cccc(C)n4)c3c2)c1` [Example 13, N-methyl-5-(1-(6-methylpyridin-2-yl)-1H-indazol-6-yl)pyridin-3-amine], the IC50 (as a rule, the concentration needed to halve the response being measured) was 100 to 1000 nM.
The figure for `Cc1cccc(-n2ncc3ccc(-c4cccc(CN(C)C)n4)cc32)n1` [Example 14, N,N-dimethyl-1-(6-(1-(6-methylpyridin-2-yl)-1H-indazol-6-yl)pyridin-2-yl)methanamine] is 100 to 1000 nM; for `Cc1cccc(-n2ncc3ccc(-c4cccc5c4CCNC5)cc32)n1` [Example 15, 5-(1-(6-methylpyridin-2-yl)-1H-indazol-6-yl)-1,2,3,4-tetrahydroisoquinoline] it is 1000 to 10000 nM.
The figure for `Cc1cccc(-n2ncc3ccc(-c4cccc5c4CCN(C)C5)cc32)n1` [Example 16, 2-methyl-5-(1-(6-methylpyridin-2-yl)-1H-indazol-6-yl)-1,2,3,4-tetrahydroisoquinoline] is 1000 to 10000 nM.
In the case of `Cc1cccc(-n2ncc3ccc(-c4cccc5c4CN(C)C5)cc32)n1` [Example 17, 6-(2-methylisoindolin-4-yl)-1-(6-methylpyridin-2-yl)-1H-indazole], the IC50 was in the range of 1000 to 10000 nM.
The value for `CNCc1cccc(-c2ccc3cnn(-c4cccc(C)n4)c3c2)c1` [Example 18, N-methyl-1-(3-(1-(6-methylpyridin-2-yl)-1H-indazol-6-yl)phenyl)methanamine] was < 100 nM; that for `N#Cc1cccc(-n2ncc3ccc(-c4cccc(N)c4)cc32)c1` [Example 20, 3-(6-(3-aminophenyl)-1H-indazol-1-yl)benzonitrile] was 100 to 1000 nM; that for `Nc1cccc(-c2ccc3cnn(-c4ccccn4)c3c2)c1` [Example 21, 3-(1-(pyridin-2-yl)-1H-indazol-6-yl)aniline] was 100 to 1000 nM.
The figure for `N#Cc1cccc(-n2ncc3ccc(-c4cccc(N)c4)cc32)n1` [Example 22, 6-(6-(3-aminophenyl)-1H-indazol-1-yl)picolinonitrile] is < 100 nM; for `Cc1cc(C)nc(-n2ncc3ccc(-c4cccc(N)c4)cc32)c1` [Example 23, 3-(1-(4,6-dimethylpyridin-2-yl)-1H-indazol-6-yl)aniline] it is 1000 to 10000 nM; for `Cc1ccc(-n2ncc3ccc(-c4cccc(N)c4)cc32)nc1C` [Example 24, 3-(1-(5,6-dimethylpyridin-2-yl)-1H-indazol-6-yl)aniline] it is 1000 to 10000 nM.
As for `Nc1cccc(-c2ccc3cnn(-c4cccc(C(F)(F)F)n4)c3c2)c1` [Example 25, 3-(1-(6-(trifluoromethyl)pyridin-2-yl)-1H-indazol-6-yl)aniline], the IC50 was < 100 nM.
The value for `Nc1cncc(-c2ccc3cnn(-c4cccc(C5CC5)n4)c3c2)c1` [Example 27, 5-(1-(6-cyclopropylpyridin-2-yl)-1H-indazol-6-yl)pyridin-3-amine] was < 100 nM.
With `Nc1cncc(-c2ccc3cnn(-c4cccc(C5CCC5)n4)c3c2)c1` [Example 28, 5-(1-(6-cyclobutylpyridin-2-yl)-1H-indazol-6-yl)pyridin-3-amine], the IC50 is 1000 to 10000 nM.
The figure for `N#Cc1cccc(-n2ncc3ccc(-c4cncc(N)c4)cc32)n1` [Example 29, 6-(6-(5-aminopyridin-3-yl)-1H-indazol-1-yl)picolinonitrile] is < 100 nM; for `Nc1cncc(-c2ccc3cnn(-c4cccc(C(=O)O)n4)c3c2)c1` [Example 30, 6-(6-(5-aminopyridin-3-yl)-1H-indazol-1-yl)picolinic acid] it is 100 to 1000 nM.
The figure for `NC(=O)c1cccc(-n2ncc3ccc(-c4cncc(N)c4)cc32)n1` [Example 31, 6-(6-(5-aminopyridin-3-yl)-1H-indazol-1-yl)picolinamide] is < 100 nM; for `CNC(=O)c1cccc(-n2ncc3ccc(-c4cncc(N)c4)cc32)n1` [Example 32, 6-(6-(5-aminopyridin-3-yl)-1H-indazol-1-yl)-N-methylpicolinamide] it is 100 to 1000 nM.

The values above are taken from US10246456B2, “IRAK4 inhibiting agents” (BIOGEN MA INC., priority 2014, dated 2019).
